Test results as given in ChEMBL document CHEMBL1201862, “PubChem BioAssay data set” (2004).
Activity calls are given as the source filed them. Cut-off read from the data, not from the text of the source, for most assays here: actives have a measured EC50 and inactives only a lower limit.

How the values were obtained:
[1] = molecular target: T1, Cytochrome P450 1A2 (Homo sapiens, UniProt P05177);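 note: PubChem cytochrome P450 panel assay, CYP1A2 panel member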
T1 sequence (P05177 whole entry): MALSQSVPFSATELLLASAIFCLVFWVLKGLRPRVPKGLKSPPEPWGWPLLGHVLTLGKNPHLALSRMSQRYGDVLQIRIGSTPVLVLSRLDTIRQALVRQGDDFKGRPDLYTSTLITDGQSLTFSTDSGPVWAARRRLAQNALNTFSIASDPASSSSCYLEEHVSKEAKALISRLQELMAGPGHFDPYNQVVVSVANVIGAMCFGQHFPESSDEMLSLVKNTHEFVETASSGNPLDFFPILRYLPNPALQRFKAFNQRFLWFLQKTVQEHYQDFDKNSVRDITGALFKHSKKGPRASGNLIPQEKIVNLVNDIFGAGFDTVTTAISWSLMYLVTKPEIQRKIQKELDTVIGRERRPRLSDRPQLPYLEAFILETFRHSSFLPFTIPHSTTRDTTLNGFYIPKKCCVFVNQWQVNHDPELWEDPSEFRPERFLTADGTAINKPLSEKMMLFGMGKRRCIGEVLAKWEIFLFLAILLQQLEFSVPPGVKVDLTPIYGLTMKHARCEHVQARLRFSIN

[2] = Trypanosoma cruzi growth suppression in host cells – NIH3T3 host cells, beta-gal luminescence, confirmation (AID 2044); assay type: functional, cell-based;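 note: intracellular parasites grown in NIH/3T3 mouse fibroblasts as host cells; luminescent beta-galactosidase reporter signal from transgenic T. cruzi replicating inside host cells; inhibitors lower the luminescence signal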
[3] = NIH3T3 cell viability loss – ATP luminescence, mouse fibroblasts, counter-screen, dose response (AID 2010); assay type: functional, cell-based;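 note: cells exposed to compound for about 90 hours before reading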
[4] = Luminescence Cell-Based Dose Retest to Confirm Inhibitors of Cancer Stem Cells. [Related pubchem assays (depositor defined):AID2717, AID2721]; assay type: functional; conditions: Homo sapiens
[5] = molecular target: T2, Streptokinase A (Streptococcus pyogenes serotype M1, UniProt P10520); assay: viability-normalized secreted streptokinase activity reduction – plasminogen activation absorbance, OD405, dose response (AID 1914); assay type: functional, Streptococcus pyogenes M1 GAS;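 note: secreted streptokinase activity via plasminogen activation per viability signal from cell pellet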
T2 sequence (P10520 whole entry): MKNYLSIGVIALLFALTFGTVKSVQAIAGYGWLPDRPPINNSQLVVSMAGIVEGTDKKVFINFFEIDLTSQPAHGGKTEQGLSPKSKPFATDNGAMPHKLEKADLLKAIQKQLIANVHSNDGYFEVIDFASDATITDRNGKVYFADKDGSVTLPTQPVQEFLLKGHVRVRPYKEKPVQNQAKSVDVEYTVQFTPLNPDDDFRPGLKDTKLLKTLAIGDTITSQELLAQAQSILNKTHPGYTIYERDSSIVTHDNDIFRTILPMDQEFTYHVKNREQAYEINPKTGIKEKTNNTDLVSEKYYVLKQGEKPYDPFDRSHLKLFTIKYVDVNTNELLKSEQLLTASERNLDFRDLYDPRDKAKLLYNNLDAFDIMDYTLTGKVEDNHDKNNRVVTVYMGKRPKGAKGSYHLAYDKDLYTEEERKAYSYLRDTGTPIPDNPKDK

[6] = tested on: Streptococcus sp. 'group A'; assay: Streptococcus pyogenes SK(-)GAS viability under kanamycin – luminescence, BacTiterGlo, confirmation, counter-screen for streptokinase expression inhibitor project, dose response (AID 1900); assay type: functional, organism-based
[7] = tested on: Streptococcus; assay: GAS UMAA2166 growth inhibition – luminescence, BacTiterGlo, counter-screen for streptokinase expression inhibitor project, dose response (AID 1915); assay type: functional, organism-based;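 note: potency for reduction of bacterial viability or growth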
[8] = Luminescence Cell-Based Dose Response HTS to Identify Activators of Luciferase Translation or Activity in H4 […] Cells. [Related pubchem assays: 1829 (Project Summary), 1814 (Primary HTS)]; assay type: functional
[9] = tested on: H4; assay: Luminescence Cell-Based Dose Response HTS to Identify Activators of 5'UTR Stem-Loop Driven Prion Protein mRNA Translation in H4 Neuroglioblastoma Cells. [Related pubchem assays: 1829 (Project Summary), 1814 (Primary HTS)]; assay type: functional; conditions: Homo sapiens
[10] = molecular target: Cytochrome P450 2C9 (Homo sapiens, UniProt P11712)
Sequence of Cytochrome P450 2C9 (P11712 whole entry): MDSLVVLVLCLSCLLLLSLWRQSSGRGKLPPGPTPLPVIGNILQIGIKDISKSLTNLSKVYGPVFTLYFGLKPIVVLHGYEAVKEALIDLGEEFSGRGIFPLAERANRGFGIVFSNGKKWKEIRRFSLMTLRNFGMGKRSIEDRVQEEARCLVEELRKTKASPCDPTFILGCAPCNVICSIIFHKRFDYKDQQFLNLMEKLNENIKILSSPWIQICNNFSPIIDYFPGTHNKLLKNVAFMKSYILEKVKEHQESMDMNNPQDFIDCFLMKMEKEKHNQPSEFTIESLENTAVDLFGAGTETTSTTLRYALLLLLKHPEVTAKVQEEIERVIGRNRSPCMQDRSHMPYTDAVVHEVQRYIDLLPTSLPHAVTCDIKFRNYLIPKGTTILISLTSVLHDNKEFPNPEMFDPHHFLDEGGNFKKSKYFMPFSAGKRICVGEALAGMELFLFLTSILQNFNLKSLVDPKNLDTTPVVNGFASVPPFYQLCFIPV

CCSc1nnc(NC(=O)COc2ccc3ccccc3c2)s1
AC50 [1]: 10 µM (inconclusive)

CN1CCc2c(sc(NC(=O)c3cc4cc([N+](=O)[O-])ccc4s3)c2C(N)=O)C1
EC50 [2]: 1.73 µM (active)
EC50 [3]: 14.3 µM (active)

COc1ccc(OCC(=O)Nc2ccc(Cl)cc2C(=O)c2ccccc2)cc1
AC50 [1]: 3.55 µM (inconclusive)

CC(C)(C)c1ccc(Cn2nnc3c(O)nc(C4CCCN(C(=O)c5cccs5)C4)nc32)cc1 (stereo not drawn)
AC50 [4]: 10.6 µM (active)

CC(C)(C)c1ccc(C(=O)NCc2nnc(SCC(=O)NC3CCCC3)o2)cc1
EC50 [5]: > 150 µM (inconclusive)
EC50 [6]: > 150 µM (not active)
EC50 [7]: > 150 µM (not active)

COc1ccc(Nc2nc(NC(C)(C)C)nc(N3CCOCC3)n2)c(OC)c1
EC50 [2]: 1.59 µM (active)
EC50 [3]: > 60 µM (not active)

O=S(=O)(O)c1cc(/N=N\c2cccc3ccccc23)c(O)c2ncccc12
AC50 [1]: 0.631 µM (inconclusive)

CCOC(=O)c1ccc(NC(=S)N(Cc2cccnc2)Cc2ccco2)cc1
EC50 [2]: 0.631 µM (active)
EC50 [3]: > 60 µM (not active)

COc1ccccc1NC(=O)NCCCCc1ccccc1
EC50 [5]: > 150 µM (not active)
EC50 [6]: > 150 µM (not active)
EC50 [7]: > 150 µM (not active)

CC(=O)c1c(C)[nH]c(C(=O)Nc2nccs2)c1C
EC50 [8]: > 120 µM (not active)
EC50 [9]: > 120 µM (not active)

Nc1ccc(-c2ccc(N)cc2C(F)(F)F)c(C(F)(F)F)c1
EC50 [5]: 76.8 µM (active)
EC50 [6]: 31 µM (active)
EC50 [7]: > 150 µM (not active)

O=C(COc1ccccc1)Nc1cccc(-c2nc3ccccc3[nH]2)c1
EC50 [5]: > 150 µM (not active)
EC50 [6]: 22.7 µM (active)
EC50 [7]: > 150 µM (not active)

O=C(CC(NS(=O)(=O)c1ccc(Cl)cc1)c1ccco1)NCc1ccco1 (stereo not drawn)
AC50 [1]: 25.1 µM (inconclusive)

O=C(c1cc(COc2cccc3cnccc23)on1)N1CCC(c2ccccc2Cl)C1 (stereo not drawn)
EC50 [2]: 1.57 µM (active)
EC50 [3]: > 60 µM (not active)

O=C(c1ccncc1)N1CCC2(CCCN(c3cccc(-c4ccccc4)c3)C2)CC1
AC50 [1]: 12.6 µM (inconclusive)

Cc1cc(C)cc(NC(S)=NCCSc2ccc(Cl)cc2)c1
EC50 [5]: 15.9 µM (active)
EC50 [6]: 11.8 µM (active)
EC50 [7]: > 150 µM (not active)

Cc1c([N+](=O)[O-])nnn1-c1cc(Cl)cc(Cl)c1
EC50 [2]: 1.86 µM (active)
EC50 [3]: > 30 µM (not active)

Cc1cc(C)c(-c2csc(NC(=O)COC(=O)c3ccc4c(c3)OCO4)n2)c(C)c1
EC50 [2]: 4.69 µM (active)
EC50 [3]: > 60 µM (not active)

CN(C)Cc1nc2ccccc2c(=O)n1Cc1nc(-c2cc3ccccc3o2)cs1
EC50 [2]: 2.57 µM (active)
EC50 [5]: 104 µM (active)
EC50 [6]: 10.4 µM (active)
EC50 [3]: > 30 µM (not active)
EC50 [7]: > 150 µM (not active)

Cc1cccc(-c2nnc(SCc3ccccc3)o2)c1
AC50 [10]: 39.8 µM (inconclusive)

O=c1n(-c2ccc(Br)cc2)cnn1-c1ncccc1[N+](=O)[O-]
EC50 [8]: 2.9 µM (active)
EC50 [9]: 17.3 µM (active)

O=c1[nH]c2cc3c(cc2cc1CN(CCc1ccccc1)Cc1nnnn1CC1CCCO1)OCO3 (stereo not drawn)
EC50 [5]: > 150 µM (not active)

Oc1nc2cc3c(cc2cc1CN(CCc1ccccc1)Cc1nnnn1CC1CCCO1)OCO3 (stereo not drawn)
EC50 [6]: > 150 µM (not active)
EC50 [7]: > 150 µM (not active)

COc1ccc(C2c3ccsc3CCN2C(=O)C(C)(C)C)cc1 (stereo not drawn)
EC50 [5]: > 150 µM (not active)
EC50 [6]: > 150 µM (not active)
EC50 [7]: > 150 µM (not active)

Cc1ccc2nc(N(CCCN(C)C)C(=O)c3ccc(Br)s3)sc2c1
EC50 [2]: 0.102 µM (active)
EC50 [3]: > 60 µM (not active)

COC(=O)c1c(NC(=O)c2ccc(C)c(S(=O)(=O)Nc3ccccc3C)c2)sc2c1CCCC2
AC50 [4]: 0.875 µM (active)

Cc1cc2occ(CC(=O)NC3=NCCS3)c2cc1C(C)C
EC50 [5]: > 150 µM (not active)
EC50 [6]: 71.7 µM (active)
EC50 [7]: > 150 µM (not active)

O=[N+]([O-])c1ccc(N2CCN(S(=O)(=O)c3ccc(Cl)cc3)CC2)cc1NCc1cccnc1
EC50 [2]: 1.38 µM (active)
EC50 [3]: 15.4 µM (active)

Cc1ccc(C(=O)N2CCCC(CCC(=O)NCc3ccccc3F)C2)cn1 (stereo not drawn)
EC50 [5]: > 150 µM (not active)
EC50 [6]: > 150 µM (not active)
EC50 [7]: > 150 µM (not active)

c1ccc(N2CCN(c3nc4cc5c(cc4s3)OCCO5)CC2)cc1
EC50 [9]: 46 µM (inconclusive)

CCOC(=O)N1CCN(c2cc(N3CCN(CC)CC3)c(F)cc2[N+](=O)[O-])CC1C (stereo not drawn)
EC50 [2]: 0.184 µM (active)
EC50 [3]: > 60 µM (inconclusive)

FC(F)(F)c1cc(-c2ccc(Cl)cc2)nc(NCc2cccnc2)n1
EC50 [2]: 1.01 µM (active)
EC50 [3]: > 60 µM (not active)
AC50 [4]: 7.33 µM (active)

O=c1c(Cl)c(NCc2ccccc2)cnn1C12CC3CC(CC(C3)C1)C2
AC50 [4]: 1.16 µM (active)

O=C(Nc1cccc(NC(=O)c2cccnc2)c1)c1ccccc1
EC50 [5]: > 150 µM (not active)
EC50 [6]: > 150 µM (not active)
EC50 [7]: > 150 µM (not active)

Cc1ccc(C)c(-c2csc(N)c2C(=O)OC(C)C)c1
EC50 [5]: 17 µM (active)
EC50 [6]: 9.04 µM (active)
AC50 [4]: 6.66 µM (active)
EC50 [7]: > 150 µM (not active)

COc1cccc(-c2nnc(NC(=O)c3ccc(S(=O)(=O)N4CC(C)OC(C)C4)cc3)o2)c1 (stereo not drawn)
EC50 [6]: 1.3 µM (active)
EC50 [7]: 2.15 µM (active)

Cc1c(Cl)cnn1CC(=O)NC1C(=O)N2C(C(=O)O)=C(CSc3nnnn3C)CSC12 (stereo not drawn)
EC50 [6]: 0.1 µM (active)
EC50 [7]: 0.283 µM (active)

OC(COCC(F)(F)C(F)(F)C(F)(F)C(F)F)Cn1c2ccc(Cl)cc2c2cc(Cl)ccc21 (stereo not drawn)
EC50 [6]: 2.2 µM (active)
EC50 [7]: 2.62 µM (active)

COc1ccccc1CN1CC[C@@]2(CCCN(C(=O)c3cc(C(F)(F)F)cc(C(F)(F)F)c3)C2)C1
AC50 [1]: 15.8 µM (inconclusive)

COCCNC(=O)CN(C(=O)CCC(=O)Nc1ccccn1)c1ccc(C)cc1
AC50 [4]: > 195 µM (inactive)

CCSc1nc2nc(C)cc(C)n2n1
AC50 [1]: 12.6 µM (inconclusive)

O=S(=O)(Nc1ccc(-c2nnc(SCc3ccc(Cl)cc3)o2)cc1)c1ccccc1
AC50 [4]: 3.31 µM (active)

Cc1ccc(-n2c(SCC(=O)c3c(N)n(C)c(=O)n(C)c3=O)nc3sc4c(c3c2=O)CCCC4)c(C)c1
EC50 [2]: 2.1 µM (active)
EC50 [3]: 50.5 µM (active)

CCOc1ccccc1CN1CCN(Cc2[nH]c3ccccc3c2C)CC1CCO (stereo not drawn)
EC50 [2]: 0.204 µM (active)
EC50 [3]: > 60 µM (not active)

CCC[C@]12CN3C[C@](CCC)(CN(C1)C3c1ccccn1)C2=O (stereo partly drawn)
EC50 [6]: 43.8 µM (active)
EC50 [7]: > 150 µM (not active)

COc1cc(/C=C(/C#N)c2ccc(C)cc2)ccc1Oc1ccc([N+](=O)[O-])cn1
EC50 [2]: 1.54 µM (active)
EC50 [3]: > 60 µM (not active)

OCCCNc1[nH]cnc2nncc1-2
AC50 [1]: 6.31 µM (inconclusive)

CC1=C/C(=N\NC(=S)NCc2ccccc2)CC1
EC50 [2]: 2.88 µM (active)
EC50 [3]: > 60 µM (not active)

CCCCC(C=O)NC(=O)C(CC(C)C)NC(=O)OCc1ccccc1 (stereo not drawn)
AC50 [1]: 31.6 µM (inconclusive)

CCCOc1ccc(/C=N/Nc2cccc([N+](=O)[O-])c2)c(O)c1
AC50 [4]: 1.76 µM (active)

CCn1c(SCC(=O)N/N=C/C=C\c2ccccc2[N+](=O)[O-])nnc1-c1ccccc1
AC50 [1]: 28.2 µM (inconclusive)

N#CC1=C(N)OC2=C(C(=O)CC(c3ccccc3)C2)C1c1cccnc1 (stereo not drawn)
EC50 [2]: 0.111 µM (active)
EC50 [3]: > 30 µM (not active)

O=C(Nc1ccccc1)Nc1ccc(-n2ccc(C(F)(F)F)n2)cc1
EC50 [8]: 0.648 µM (active)
EC50 [9]: > 120 µM (not active)

CN(C)CCCN1c2ccccc2C(C)(C)c2ccccc21 [DIMETACRINE]
AC50 [1]: 5.01 µM (inconclusive)
